Laboratory results from ChEMBL document CHEMBL5226381, “Iterative Methylation Leads to 3-Methylchuangxinmycin Production in Actinoplanes tsinanensis CPCC 200056” (2023).
≈ marks a conversion by molar mass, not a printed value. Calls of active or inactive are those of the source. The calls are words filed in the database; no cut-off is given here.

Assays:
[1] = system: Mycobacterium tuberculosis; test: Antitubercular activity against Mycobacterium tuberculosis H37Rv assessed as inhibition of bacterial growth incubated for 7 to 10 days by Alamar Blue staining based analysis; type: functional; details: time 7-10 day
[2] = system: Mycobacterium tuberculosis; test: Antitubercular activity against INH/RIF-sensitive Mycobacterium tuberculosis clinical isolate S17 assessed as inhibition of bacterial growth incubated for 7 to 10 days by Alamar Blue staining based analysis; type: functional; details: time 7-10 day
[3] = system: Mycobacterium tuberculosis; test: Antitubercular activity against INH/RIF-sensitive Mycobacterium tuberculosis clinical isolate S23 assessed as inhibition of bacterial growth incubated for 7 to 10 days by Alamar Blue staining based analysis; type: functional; details: time 7-10 day
Enterobacter cloacae = test: Antibacterial activity against Enterobacter cloacae ATCC 43560 assessed as inhibition of bacterial growth incubated for 18 hrs by agar dilution method; type: functional, organism-based
Escherichia coli [4] = test: Antibacterial activity against Escherichia coli ATCC 2469 assessed as inhibition of bacterial growth incubated for 18 hrs by agar dilution method; type: functional, organism-based
Klebsiella pneumoniae [5] = test: Antibacterial activity against Klebsiella pneumoniae ATCC 700603 assessed as inhibition of bacterial growth incubated for 18 hrs by agar dilution method; type: functional, organism-based
Klebsiella aerogenes = test: Antibacterial activity against Enterobacter aerogenes ATCC 13048 assessed as inhibition of bacterial growth incubated for 18 hrs by agar dilution method; type: functional, organism-based
[6] = system: Stenotrophomonas maltophilia; test: Antibacterial activity against Pseudomonas maltophilia ATCC 13636 assessed as inhibition of bacterial growth incubated for 18 hrs by agar dilution method; type: functional, organism-based
Serratia marcescens = test: Antibacterial activity against Serratia marcescens ATCC 21074 assessed as inhibition of bacterial growth incubated for 18 hrs by agar dilution method; type: functional, organism-based
Escherichia coli [7] = test: Antibacterial activity against Escherichia coli ATCC 25922 assessed as inhibition of bacterial growth incubated for 18 hrs by agar dilution method; type: functional, organism-based
Klebsiella pneumoniae [8] = test: Antibacterial activity against Klebsiella pneumoniae ATCC BAA-2146 assessed as inhibition of bacterial growth incubated for 18 hrs by agar dilution method; type: functional, organism-based
Escherichia coli [9] = test: Antibacterial activity against Escherichia coli ATCC 35218 assessed as inhibition of bacterial growth incubated for 18 hrs by agar dilution method; type: functional, organism-based
Acinetobacter baumannii = test: Antibacterial activity against Acinetobacter baumannii ATCC 19606 assessed as inhibition of bacterial growth incubated for 18 hrs by agar dilution method; type: functional, organism-based
Shigella flexneri = test: Antibacterial activity against Shigella flexneri ATCC 12022 assessed as inhibition of bacterial growth incubated for 18 hrs by agar dilution method; type: functional, organism-based
Escherichia coli [10] = test: Antibacterial activity against Escherichia coli 16-1 assessed as inhibition of bacterial growth incubated for 18 hrs by agar dilution method; type: functional, organism-based
Proteus mirabilis = test: Antibacterial activity against Proteus mirabilis ATCC 49565 assessed as inhibition of bacterial growth incubated for 18 hrs by agar dilution method; type: functional, organism-based
Pseudomonas aeruginosa = test: Antibacterial activity against Pseudomonas aeruginosa ATCC 27853 assessed as inhibition of bacterial growth incubated for 18 hrs by agar dilution method; type: functional, organism-based
[11] = system: Praffidenbacterium reggii; test: Antibacterial activity against […] ATCC 31052 assessed as inhibition of bacterial growth incubated for 18 hrs by agar dilution method; type: functional

SMILES	MIC [1] [mg/L]	MIC [2] [mg/L]	MIC [3] [mg/L]	Activity (Enterobacter cloacae)	Activity (Escherichia coli [4])	Activity (Klebsiella pneumoniae [5])	Activity (Klebsiella aerogenes)	Activity [6]	Activity (Serratia marcescens)	Activity (Escherichia coli [7])	Activity (Klebsiella pneumoniae [8])	Activity (Escherichia coli [9])	Activity (Acinetobacter baumannii)	Activity (Shigella flexneri)	Activity (Escherichia coli [10])	Activity (Proteus mirabilis)	Activity (Pseudomonas aeruginosa)	Activity [11]
O=C(O)[C@H]1Cc2c[nH]c3cccc(c23)S1	4 (≈ 18.2 µM)	0.78 (≈ 3.56 µM)	0.78 (≈ 3.56 µM)	–	–	–	–	–	–	–	–	–	–	–	–	–	–	–
CC1(C)c2c[nH]c3cccc(c23)S[C@H]1C(=O)O	32 (≈ 129 µM)	50 (≈ 202 µM)	12.5 (≈ 50.5 µM)	inactive	inactive	inactive	inactive	inactive	inactive	inactive	inactive	inactive	inactive	inactive	inactive	inactive	inactive	inactive
C[C@H]1c2c[nH]c3cccc(c23)S[C@H]1C(=O)O [CHUANGXINMYCIN]	1 (≈ 4.29 µM)	0.78 (≈ 3.34 µM)	0.78 (≈ 3.34 µM)	inactive	inactive	inactive	inactive	inactive	inactive	inactive	inactive	inactive	inactive	–	inactive	inactive	inactive	inactive
NNC(=O)c1ccncc1 [ISONIAZID]	0.06 (≈ 0.438 µM)	0.125 (≈ 0.911 µM)	0.125 (≈ 0.911 µM)	–	–	–	–	–	–	–	–	–	–	–	–	–	–	–
CO[C@H]1/C=C/O[C@@]2(C)Oc3c(C)c(O)c4c(O)c(c(/C=N/N5CCN(C)CC5)c(O)c4c3C2=O)NC(=O)/C(C)=C\C=C\[C@H](C)[C@H](O)[C@@H](C)[C@@H](O)[C@@H](C)[C@H](OC(C)=O)[C@@H]1C [RIFAMPIN]	0.25 (≈ 0.304 µM)	0.25 (≈ 0.304 µM)	0.25 (≈ 0.304 µM)	–	–	–	–	–	–	–	–	–	–	–	–	–	–	–
